Reference: ChEMBL document CHEMBL5465560, “Selectivity Literature for EUbOPEN Chemogenomic Library” (2024)

Tests used:
[1] = molecular target: BMP-2-inducible protein kinase (Homo sapiens) (UniProt Q9NSY1); assay: Selectivity interaction (KinomeScan (DiscoverX)) EUB0000092b BMP2K; settings: at 10 µM
[2] = molecular target: Cyclin-dependent kinase 9 (Homo sapiens, UniProt P50750); assay: Selectivity interaction (KinomeScan (DiscoverX)) EUB0000092b CDK9; settings: at 10 µM
[3] = molecular target: Focal adhesion kinase 1 (Homo sapiens, UniProt Q05397); assay: Selectivity interaction (Upstate Kinase Profiler service (Millipore)) EUB0000056c PTK2; settings: at 1 µM
[4] = molecular target: T1, Tyrosine-protein kinase ZAP-70 (Homo sapiens) (UniProt P43403); assay: Selectivity interaction (KinomeScan (DiscoverX)) EUB0000655a ZAP70; settings: at 10 µM
T1 sequence (whole entry): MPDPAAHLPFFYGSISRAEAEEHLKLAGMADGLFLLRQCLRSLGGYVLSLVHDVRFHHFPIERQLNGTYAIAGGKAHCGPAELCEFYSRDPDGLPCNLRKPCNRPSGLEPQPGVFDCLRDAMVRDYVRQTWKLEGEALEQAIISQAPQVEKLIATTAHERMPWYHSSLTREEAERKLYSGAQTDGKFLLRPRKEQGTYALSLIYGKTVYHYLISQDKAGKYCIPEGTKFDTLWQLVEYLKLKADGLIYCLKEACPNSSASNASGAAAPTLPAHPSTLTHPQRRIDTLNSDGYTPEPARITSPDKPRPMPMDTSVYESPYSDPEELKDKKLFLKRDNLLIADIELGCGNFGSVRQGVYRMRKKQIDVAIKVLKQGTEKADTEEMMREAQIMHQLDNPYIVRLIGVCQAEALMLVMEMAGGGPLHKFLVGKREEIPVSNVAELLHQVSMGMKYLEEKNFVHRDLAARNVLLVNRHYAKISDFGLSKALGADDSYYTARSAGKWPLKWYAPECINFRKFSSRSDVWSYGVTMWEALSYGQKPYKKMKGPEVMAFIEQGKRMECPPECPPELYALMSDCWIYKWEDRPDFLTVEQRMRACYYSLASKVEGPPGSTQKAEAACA

[5] = molecular target: Homeodomain-interacting protein kinase 1 (Homo sapiens, UniProt Q86Z02); assay: Selectivity interaction (KinomeScan (DiscoverX)) EUB0001079a HIPK1; settings: at 1 µM
[6] = molecular target: Serine/threonine-protein kinase tousled-like 2 (Homo sapiens) (UniProt Q86UE8); assay: Selectivity interaction (LanthaScreen Eu Kinase Binding Assay) EUB0001632a TLK2; settings: at 10 µM
[7] = molecular target: Serine/threonine-protein kinase WNK1 (Homo sapiens) (UniProt Q9H4A3); assay: Selectivity interaction (ActivX KiNativ screen (kinase selectivity in THP-1 cell lysates)) EUB0000639a WNK1; assay type: subcellular; settings: lysate, at 1 µM
[8] = system: Phosphatidylinositol 4,5-bisphosphate 3-kinase catalytic subunit alpha isoform (Homo sapiens), P42336 [E545A]; settings: at 10 µM
[9] = molecular target: Rho-associated protein kinase 2 (Homo sapiens, UniProt O75116); assay: Selectivity interaction (KinomeScan (DiscoverX)) EUB0000695a ROCK2; settings: at 100 nM
[10] = molecular target: T2, Mitogen-activated protein kinase kinase kinase 2 (Homo sapiens) (UniProt Q9Y2U5); assay: Selectivity interaction (KinomeScan (DiscoverX)) EUB0000595a MAP3K2; settings: at 10 µM
T2 sequence (whole entry): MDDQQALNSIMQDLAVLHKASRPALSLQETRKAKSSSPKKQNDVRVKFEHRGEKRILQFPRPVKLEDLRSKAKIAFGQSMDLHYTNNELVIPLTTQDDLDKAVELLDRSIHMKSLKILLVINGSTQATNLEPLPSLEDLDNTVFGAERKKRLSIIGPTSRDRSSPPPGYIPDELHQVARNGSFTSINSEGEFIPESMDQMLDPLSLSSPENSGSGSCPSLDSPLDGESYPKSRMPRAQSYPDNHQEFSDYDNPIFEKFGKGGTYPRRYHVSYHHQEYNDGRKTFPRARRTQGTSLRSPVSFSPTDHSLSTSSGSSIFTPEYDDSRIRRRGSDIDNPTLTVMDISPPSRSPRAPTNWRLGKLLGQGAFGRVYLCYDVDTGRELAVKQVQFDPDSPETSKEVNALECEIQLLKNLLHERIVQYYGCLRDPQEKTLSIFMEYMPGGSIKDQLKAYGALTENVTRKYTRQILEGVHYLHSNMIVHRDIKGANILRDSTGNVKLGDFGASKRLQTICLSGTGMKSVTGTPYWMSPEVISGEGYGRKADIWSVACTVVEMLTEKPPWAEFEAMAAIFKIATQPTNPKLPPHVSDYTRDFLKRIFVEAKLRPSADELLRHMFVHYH

[11] = molecular target: T3, MAP kinase-activated protein kinase 5 (Homo sapiens) (UniProt Q8IW41); assay: Selectivity interaction (KinomeScan (DiscoverX)) EUB0000045b MAPKAPK5
T3 sequence (whole entry): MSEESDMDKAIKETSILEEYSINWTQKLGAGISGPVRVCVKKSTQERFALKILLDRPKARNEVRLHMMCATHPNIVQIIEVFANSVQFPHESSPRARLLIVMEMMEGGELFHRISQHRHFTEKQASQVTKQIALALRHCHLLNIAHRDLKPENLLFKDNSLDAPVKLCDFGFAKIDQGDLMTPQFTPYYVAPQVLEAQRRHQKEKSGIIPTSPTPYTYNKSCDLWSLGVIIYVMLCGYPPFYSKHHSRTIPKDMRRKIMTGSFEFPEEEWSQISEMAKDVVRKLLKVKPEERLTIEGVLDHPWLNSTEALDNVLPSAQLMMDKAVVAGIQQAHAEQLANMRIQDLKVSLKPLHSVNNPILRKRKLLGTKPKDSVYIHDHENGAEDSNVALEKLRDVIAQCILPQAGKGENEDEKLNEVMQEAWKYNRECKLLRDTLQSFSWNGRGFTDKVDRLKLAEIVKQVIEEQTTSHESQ

[12] = molecular target: Cyclin-dependent kinase 16 (Homo sapiens) (UniProt Q00536); assay: Selectivity interaction (KinomeScan (DiscoverX)) EUB0001619a CDK16; settings: at 1 µM
Sequence of Cyclin-dependent kinase 16 (Homo sapiens) (Q00536 whole entry): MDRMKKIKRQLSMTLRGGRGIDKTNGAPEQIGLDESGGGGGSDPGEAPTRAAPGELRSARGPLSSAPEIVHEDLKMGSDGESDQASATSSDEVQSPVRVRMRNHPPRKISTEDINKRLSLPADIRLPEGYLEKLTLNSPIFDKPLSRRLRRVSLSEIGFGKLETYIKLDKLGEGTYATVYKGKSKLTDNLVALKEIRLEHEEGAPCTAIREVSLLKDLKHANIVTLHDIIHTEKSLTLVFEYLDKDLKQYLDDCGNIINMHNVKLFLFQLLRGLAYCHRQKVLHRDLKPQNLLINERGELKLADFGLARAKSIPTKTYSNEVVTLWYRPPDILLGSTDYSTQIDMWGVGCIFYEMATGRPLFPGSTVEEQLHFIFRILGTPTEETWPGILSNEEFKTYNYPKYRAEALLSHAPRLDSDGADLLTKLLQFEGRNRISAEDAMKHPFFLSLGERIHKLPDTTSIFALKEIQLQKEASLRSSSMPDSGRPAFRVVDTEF

Sequence of Homeodomain-interacting protein kinase 1 (Q86Z02 whole entry, looked up): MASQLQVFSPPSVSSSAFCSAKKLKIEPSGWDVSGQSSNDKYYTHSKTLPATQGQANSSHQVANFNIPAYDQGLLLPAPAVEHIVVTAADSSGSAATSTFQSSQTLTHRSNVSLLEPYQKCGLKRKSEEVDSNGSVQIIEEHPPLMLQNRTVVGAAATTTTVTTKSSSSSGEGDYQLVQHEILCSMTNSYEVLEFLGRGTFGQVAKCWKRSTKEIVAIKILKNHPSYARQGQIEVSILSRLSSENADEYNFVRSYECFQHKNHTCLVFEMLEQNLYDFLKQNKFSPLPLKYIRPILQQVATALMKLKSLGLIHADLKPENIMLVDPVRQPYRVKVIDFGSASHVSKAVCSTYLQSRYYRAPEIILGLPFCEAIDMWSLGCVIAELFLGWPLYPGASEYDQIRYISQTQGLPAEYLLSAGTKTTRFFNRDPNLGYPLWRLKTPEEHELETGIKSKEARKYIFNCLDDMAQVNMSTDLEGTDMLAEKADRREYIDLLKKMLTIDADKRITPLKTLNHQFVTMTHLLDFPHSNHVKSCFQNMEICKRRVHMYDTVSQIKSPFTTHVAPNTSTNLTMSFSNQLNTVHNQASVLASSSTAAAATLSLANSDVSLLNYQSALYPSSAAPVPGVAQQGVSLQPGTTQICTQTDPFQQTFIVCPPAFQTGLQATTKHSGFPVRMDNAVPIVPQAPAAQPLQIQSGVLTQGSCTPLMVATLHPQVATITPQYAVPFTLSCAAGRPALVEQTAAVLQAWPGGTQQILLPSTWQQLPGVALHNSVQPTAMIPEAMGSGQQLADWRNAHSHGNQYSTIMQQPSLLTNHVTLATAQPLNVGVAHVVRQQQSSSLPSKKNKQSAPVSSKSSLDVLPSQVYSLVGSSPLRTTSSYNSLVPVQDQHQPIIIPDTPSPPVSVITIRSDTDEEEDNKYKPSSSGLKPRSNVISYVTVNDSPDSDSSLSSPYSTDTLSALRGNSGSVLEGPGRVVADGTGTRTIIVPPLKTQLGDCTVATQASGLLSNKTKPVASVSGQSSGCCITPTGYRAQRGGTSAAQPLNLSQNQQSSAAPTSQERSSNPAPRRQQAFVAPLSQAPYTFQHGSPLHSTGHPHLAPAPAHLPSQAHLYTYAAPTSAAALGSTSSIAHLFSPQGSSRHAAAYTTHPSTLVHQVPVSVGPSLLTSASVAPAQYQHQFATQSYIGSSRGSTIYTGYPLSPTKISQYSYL
Sequence of Phosphatidylinositol 4,5-bisphosphate 3-kinase catalytic subunit alpha isoform (Homo sapiens), P42336 [E545A] (P42336 whole entry E545A, canonical isoform): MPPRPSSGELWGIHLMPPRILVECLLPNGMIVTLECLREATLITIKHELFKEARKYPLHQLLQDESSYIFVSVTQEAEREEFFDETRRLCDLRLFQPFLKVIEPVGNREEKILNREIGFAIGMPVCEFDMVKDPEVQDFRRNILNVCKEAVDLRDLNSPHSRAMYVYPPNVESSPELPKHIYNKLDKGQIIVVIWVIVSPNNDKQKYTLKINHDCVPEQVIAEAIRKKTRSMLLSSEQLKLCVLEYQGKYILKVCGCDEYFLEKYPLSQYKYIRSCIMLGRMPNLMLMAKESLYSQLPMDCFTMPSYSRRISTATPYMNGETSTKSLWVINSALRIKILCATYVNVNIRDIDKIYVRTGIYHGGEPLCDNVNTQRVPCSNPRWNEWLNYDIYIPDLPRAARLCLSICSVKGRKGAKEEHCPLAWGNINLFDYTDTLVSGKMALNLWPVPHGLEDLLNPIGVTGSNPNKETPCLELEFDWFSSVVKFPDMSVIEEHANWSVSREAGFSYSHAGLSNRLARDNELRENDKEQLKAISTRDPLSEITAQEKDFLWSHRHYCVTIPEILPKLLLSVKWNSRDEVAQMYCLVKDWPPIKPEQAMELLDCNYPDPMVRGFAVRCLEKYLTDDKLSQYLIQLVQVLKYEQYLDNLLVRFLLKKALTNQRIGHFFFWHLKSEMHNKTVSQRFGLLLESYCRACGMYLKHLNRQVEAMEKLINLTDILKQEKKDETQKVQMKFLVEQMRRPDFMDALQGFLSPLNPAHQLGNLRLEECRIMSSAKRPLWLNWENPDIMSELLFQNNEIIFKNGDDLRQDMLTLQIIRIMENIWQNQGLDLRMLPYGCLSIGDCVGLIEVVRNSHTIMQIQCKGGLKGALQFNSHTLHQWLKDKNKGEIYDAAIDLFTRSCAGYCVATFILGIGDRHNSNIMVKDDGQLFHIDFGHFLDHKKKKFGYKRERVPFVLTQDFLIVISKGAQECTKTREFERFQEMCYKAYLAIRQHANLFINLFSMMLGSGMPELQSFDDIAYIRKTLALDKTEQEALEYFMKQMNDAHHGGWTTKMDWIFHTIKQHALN
Sequence of BMP-2-inducible protein kinase (Homo sapiens) (Q9NSY1 whole entry, looked up): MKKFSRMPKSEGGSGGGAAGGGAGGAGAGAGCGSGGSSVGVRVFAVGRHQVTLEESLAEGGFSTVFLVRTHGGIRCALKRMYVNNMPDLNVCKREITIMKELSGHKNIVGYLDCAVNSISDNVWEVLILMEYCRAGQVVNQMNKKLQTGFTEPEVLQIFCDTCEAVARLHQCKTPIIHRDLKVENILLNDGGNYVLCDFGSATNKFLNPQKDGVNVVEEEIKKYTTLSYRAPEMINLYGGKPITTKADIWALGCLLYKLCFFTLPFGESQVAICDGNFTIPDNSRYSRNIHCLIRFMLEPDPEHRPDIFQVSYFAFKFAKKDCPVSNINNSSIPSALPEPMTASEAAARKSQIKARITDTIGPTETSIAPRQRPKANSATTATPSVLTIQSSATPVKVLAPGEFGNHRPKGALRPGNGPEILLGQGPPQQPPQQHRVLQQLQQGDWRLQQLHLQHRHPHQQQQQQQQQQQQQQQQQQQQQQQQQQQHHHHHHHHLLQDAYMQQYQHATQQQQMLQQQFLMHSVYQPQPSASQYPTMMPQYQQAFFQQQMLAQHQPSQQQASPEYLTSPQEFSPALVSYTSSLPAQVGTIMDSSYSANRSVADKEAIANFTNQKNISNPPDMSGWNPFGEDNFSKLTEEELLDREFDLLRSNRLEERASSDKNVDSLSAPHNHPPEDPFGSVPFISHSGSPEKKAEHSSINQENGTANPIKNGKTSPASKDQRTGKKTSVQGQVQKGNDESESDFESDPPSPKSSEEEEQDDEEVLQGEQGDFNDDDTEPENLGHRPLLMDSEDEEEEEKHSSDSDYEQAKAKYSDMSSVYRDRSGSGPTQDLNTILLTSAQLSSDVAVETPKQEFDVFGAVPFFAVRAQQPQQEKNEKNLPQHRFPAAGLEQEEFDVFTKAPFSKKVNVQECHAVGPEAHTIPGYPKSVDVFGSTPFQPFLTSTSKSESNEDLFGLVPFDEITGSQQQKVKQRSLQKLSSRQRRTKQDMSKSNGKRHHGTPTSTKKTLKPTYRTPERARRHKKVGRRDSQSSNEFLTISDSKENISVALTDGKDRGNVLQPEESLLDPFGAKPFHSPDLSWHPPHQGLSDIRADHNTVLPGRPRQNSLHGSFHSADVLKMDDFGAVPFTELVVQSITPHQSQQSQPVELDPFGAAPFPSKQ
Sequence of Serine/threonine-protein kinase tousled-like 2 (Homo sapiens) (Q86UE8 whole entry, looked up): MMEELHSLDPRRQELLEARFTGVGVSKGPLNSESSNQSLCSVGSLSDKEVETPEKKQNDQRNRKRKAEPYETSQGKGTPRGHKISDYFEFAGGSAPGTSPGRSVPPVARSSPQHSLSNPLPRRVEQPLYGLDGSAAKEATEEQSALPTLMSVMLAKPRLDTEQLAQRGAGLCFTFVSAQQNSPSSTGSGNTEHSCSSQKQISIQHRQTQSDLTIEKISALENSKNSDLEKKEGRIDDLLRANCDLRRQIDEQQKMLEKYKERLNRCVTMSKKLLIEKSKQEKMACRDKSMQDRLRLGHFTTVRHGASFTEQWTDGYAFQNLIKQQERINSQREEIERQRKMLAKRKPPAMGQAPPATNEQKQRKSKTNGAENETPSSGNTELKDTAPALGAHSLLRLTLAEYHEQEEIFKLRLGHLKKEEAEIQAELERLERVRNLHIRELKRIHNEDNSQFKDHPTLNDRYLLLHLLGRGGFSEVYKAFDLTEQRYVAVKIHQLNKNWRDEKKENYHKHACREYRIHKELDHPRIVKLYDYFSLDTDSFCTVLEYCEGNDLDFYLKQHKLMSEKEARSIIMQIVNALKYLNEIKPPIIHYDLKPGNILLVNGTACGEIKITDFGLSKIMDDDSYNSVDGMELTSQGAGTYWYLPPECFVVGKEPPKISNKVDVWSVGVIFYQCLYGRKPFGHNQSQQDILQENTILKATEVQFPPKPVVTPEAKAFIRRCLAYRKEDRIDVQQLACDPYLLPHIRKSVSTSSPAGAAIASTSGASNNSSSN
Sequence of Cyclin-dependent kinase 9 (P50750 whole entry): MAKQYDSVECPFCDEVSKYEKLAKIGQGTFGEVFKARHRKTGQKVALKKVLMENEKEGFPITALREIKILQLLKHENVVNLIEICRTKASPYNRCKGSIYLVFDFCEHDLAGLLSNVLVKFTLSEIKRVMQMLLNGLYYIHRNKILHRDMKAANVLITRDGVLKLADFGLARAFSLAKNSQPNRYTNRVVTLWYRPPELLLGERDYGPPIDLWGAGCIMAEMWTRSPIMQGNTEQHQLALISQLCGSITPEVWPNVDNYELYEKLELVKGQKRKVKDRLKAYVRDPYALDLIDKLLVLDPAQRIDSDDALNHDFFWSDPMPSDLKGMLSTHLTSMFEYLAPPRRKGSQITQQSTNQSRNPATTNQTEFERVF

CCC(=O)N1CCN(c2ccc(-n3c(=O)ccc4cnc5ccc(-c6cnc7ccccc7c6)cc5c43)cc2C(F)(F)F)CC1
% of control [1]: 100%
% of control [2]: 94%

Cc1ccc(-c2ccc3c(ccc4sc5c(c43)NC[C@@H](C)NC5=O)n2)cn1
% of inhibition [3]: -2%

CN(C)CCOc1ccc(-c2nc(-c3ccncc3)c(-c3ccc4c(c3)CC/C4=N\O)[nH]2)cc1
% of control [4]: 100%

Nc1cnc(N2CCc3cc(S(=O)(=O)Nc4c(F)cc(Cl)cc4F)cc(N4CCCC4=O)c32)nc1 [TP-020n]
% of control [5]: 91%

Cn1cc(-n2cnc3c(NCc4nc5cc(Cl)c(Cl)cc5[nH]4)nc(N4CCOCC4)nc32)cn1
% of inhibition [6]: -11.9%

CC[C@@H]1[C@H](F)C(=O)N[C@@H]1COc1nccc2cc(C(N)=O)c(OC)cc12 [ZIMLOVISERTIB]
% of inhibition [7]: -7.7%

CNC(=O)Nc1ccc(-c2nc(N3CC4CCC(C3)O4)c3cnn(C4CCC5(CC4)OCCO5)c3n2)cc1
% of control [8]: 8.8%

Cc1cc(F)c(C(=O)Nc2cccc(-c3nncn3C(C)C)n2)cc1-n1cnc(C2CC2)c1
% of control [9]: 81%

COCC(=O)NC/C=C/c1ccc2ncnc(Nc3ccc(Oc4ccc(C)nc4)c(C)c3)c2c1 [CP-724714]
% of control [10]: 100%

C=CC(=O)Nc1cc(-n2c(=O)ccc3cnc4ccc(-c5ccc(NS(C)(=O)=O)cc5)cc4c32)ccc1C
% of control ([11]; at 1 µM): 100%
% of control ([11]; at 10 µM): 100%

N#Cc1cccc(-c2c[nH]c3ncnc(N4CCOCC4)c23)c1
% of control [12]: 90%
